Reference: PubChem BioAssay (NCI)
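Values below derive from 48-hour exposures of cells grown in 96-well plates, with endpoints linearly interpolated between the two concentrations bracketing the appropriate inhibition level. GI50: concentration for 50% inhibition of growth. TGI: concentration producing complete growth inhibition.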

Legend:
Test in all cases: NCI anticancer screen, dose series, 48 h
HOP-62 NSCLC = test system: HOP-62 NSCLC
OVCAR-8 ovarian = test system: OVCAR-8 ovarian
ACHN renal = test system: ACHN renal
K-562 leukemia = test system: K-562 leukemia
MOLT-4 leukemia = test system: MOLT-4 leukemia
NCI-H23 lung = test system: NCI-H23 lung
EKVX NSCLC = test system: EKVX NSCLC
SNB-19 CNS = test system: SNB-19 CNS
UO-31 renal = test system: UO-31 renal
NCI-H460 lung = test system: NCI-H460 lung

Cc1cc(S(=O)(=O)Nc2n[nH]c(-c3ccc(Cl)cc3)c2C#N)c(S)cc1Cl
GI50 (HOP-62 NSCLC): > 100 µM | TGI (HOP-62 NSCLC): > 100 µM | GI50 (OVCAR-8 ovarian): > 100 µM | TGI (OVCAR-8 ovarian): > 100 µM | GI50 (ACHN renal): > 100 µM | TGI (ACHN renal): > 100 µM | GI50 (K-562 leukemia): > 100 µM | TGI (K-562 leukemia): > 100 µM | GI50 (MOLT-4 leukemia): > 100 µM | TGI (MOLT-4 leukemia): > 100 µM | GI50 (NCI-H23 lung): > 100 µM | TGI (NCI-H23 lung): > 100 µM | GI50 (EKVX NSCLC): > 100 µM | TGI (EKVX NSCLC): > 100 µM | GI50 (SNB-19 CNS): > 100 µM | TGI (SNB-19 CNS): > 100 µM | GI50 (UO-31 renal): > 100 µM | TGI (UO-31 renal): > 100 µM | GI50 (NCI-H460 lung): > 100 µM | TGI (NCI-H460 lung): > 100 µM

Cc1cc(C)c2c(=O)cc(-c3ccc(F)cc3)[nH]c2n1
TGI (HOP-62 NSCLC): > 100 µM | TGI (OVCAR-8 ovarian): > 100 µM | TGI (ACHN renal): > 100 µM | TGI (K-562 leukemia): > 100 µM | TGI (MOLT-4 leukemia): > 100 µM | TGI (NCI-H23 lung): > 100 µM | TGI (EKVX NSCLC): > 100 µM | TGI (SNB-19 CNS): > 100 µM | TGI (UO-31 renal): 92.4 µM | GI50 (NCI-H460 lung): 51.6 µM | TGI (NCI-H460 lung): > 100 µM

Cc1ccc(NC(=O)CC2SC(=Nc3cccc(Cl)c3C)NC2=O)cc1 (stereo not given)
TGI (HOP-62 NSCLC): > 100 µM | TGI (OVCAR-8 ovarian): > 100 µM | TGI (ACHN renal): > 100 µM | TGI (K-562 leukemia): > 100 µM | TGI (MOLT-4 leukemia): > 100 µM | TGI (NCI-H23 lung): 95.3 µM | TGI (EKVX NSCLC): > 100 µM | TGI (SNB-19 CNS): > 100 µM | TGI (UO-31 renal): 73.8 µM | TGI (NCI-H460 lung): > 100 µM

CCCC(c1cc(C(C)(C)C)c(O)cc1C)c1cc(C(C)(C)C)c(O)cc1C
TGI (HOP-62 NSCLC): 8 µM | TGI (OVCAR-8 ovarian): 12.9 µM | TGI (ACHN renal): 7.4 µM | TGI (K-562 leukemia): 6.43 µM | TGI (MOLT-4 leukemia): 5.41 µM | TGI (NCI-H23 lung): 6.24 µM | TGI (EKVX NSCLC): 7.75 µM | TGI (SNB-19 CNS): 16.9 µM | TGI (UO-31 renal): 11.2 µM | TGI (NCI-H460 lung): 3.92 µM

COC(=O)c1oc([N+](=O)[O-])c(-c2ccccc2)c1-c1ccccc1
TGI (HOP-62 NSCLC): > 100 µM | TGI (OVCAR-8 ovarian): > 100 µM | TGI (ACHN renal): > 100 µM | TGI (K-562 leukemia): > 100 µM | TGI (MOLT-4 leukemia): > 100 µM | TGI (NCI-H23 lung): > 100 µM | TGI (EKVX NSCLC): > 100 µM | TGI (SNB-19 CNS): > 100 µM | TGI (UO-31 renal): > 100 µM | TGI (NCI-H460 lung): > 100 µM

Oc1c(CCl)cc(Cl)cc1Cc1cc(Cl)cc(Cc2cc(Cl)cc(CCl)c2O)c1O
GI50 (HOP-62 NSCLC): 4.42 µM | TGI (HOP-62 NSCLC): 26.5 µM | GI50 (OVCAR-8 ovarian): 3.62 µM | TGI (OVCAR-8 ovarian): 30.7 µM | GI50 (ACHN renal): 3.09 µM | TGI (ACHN renal): 12.8 µM | GI50 (K-562 leukemia): 1.99 µM | TGI (K-562 leukemia): 13.4 µM | GI50 (MOLT-4 leukemia): 2.67 µM | TGI (MOLT-4 leukemia): 13.4 µM | GI50 (NCI-H23 lung): 2.18 µM | TGI (NCI-H23 lung): 7.31 µM | GI50 (EKVX NSCLC): 2.89 µM | TGI (EKVX NSCLC): 15.8 µM | GI50 (SNB-19 CNS): 3.02 µM | TGI (SNB-19 CNS): 15.9 µM | GI50 (UO-31 renal): 2.92 µM | TGI (UO-31 renal): 11.8 µM | GI50 (NCI-H460 lung): 3.26 µM | TGI (NCI-H460 lung): 11 µM

Cc1cc2c(cc1C)[n+](=O)c(C(=O)CC(=O)C(=O)Nc1ccccc1C)c(C)n2[O-]
TGI (HOP-62 NSCLC): > 100 µM | TGI (OVCAR-8 ovarian): > 100 µM | TGI (ACHN renal): > 100 µM | TGI (K-562 leukemia): > 100 µM | TGI (MOLT-4 leukemia): > 100 µM | TGI (NCI-H23 lung): > 100 µM | TGI (EKVX NSCLC): > 100 µM | TGI (SNB-19 CNS): > 100 µM | TGI (UO-31 renal): > 100 µM | TGI (NCI-H460 lung): > 100 µM

COc1cc2c3c(n(CCCNC(C)(C)CO)c(=O)c2cc1OC)-c1cc2c(cc1C3=O)OCO2
GI50 (HOP-62 NSCLC): 0.131 µM | TGI (HOP-62 NSCLC): 5.14 µM | GI50 (OVCAR-8 ovarian): 1.18 µM | TGI (OVCAR-8 ovarian): 22.4 µM | GI50 (ACHN renal): 0.331 µM | TGI (ACHN renal): 14.3 µM | GI50 (K-562 leukemia): 2.82 µM | TGI (K-562 leukemia): > 55.7 µM | TGI (MOLT-4 leukemia): 0.11 µM | GI50 (NCI-H23 lung): 0.799 µM | TGI (NCI-H23 lung): 12.3 µM | GI50 (EKVX NSCLC): 16.6 µM | TGI (EKVX NSCLC): 42.7 µM | GI50 (SNB-19 CNS): 1.83 µM | TGI (SNB-19 CNS): > 61.2 µM | GI50 (UO-31 renal): 1.96 µM | TGI (UO-31 renal): > 55.4 µM | GI50 (NCI-H460 lung): 1.15 µM | TGI (NCI-H460 lung): > 69.2 µM
